# According to patent US20160129011A1, “BICYCLO 2,3-BENZODIAZEPINES AND SPIROCYCLICALLY SUBSTITUTED 2,3-BENZODIAZEPINES” (BAYER PHARMA AKTIENGESELLSCHAFT, priority 2013, published 2016):
# Target: T1, BRD4 (BD1) (Homo sapiens, UniProt O60885)
# T1 construct: longer constructs also being possible, preferably amino acids 44-168; made in house; host or cells: E. coli
# Assay: Binding assay BRD4/acetylated peptide H4 (TR-FRET protein-protein interaction assay)
# Conditions: BRD4 (BD1) / acetylated histone H4 peptide
# From the text: To assess the BRD4 binding strength of the substances described in this application, the ability thereof to inhibit the interaction between BRD4 (BD1) and acetylated histone H4 in a dose-dependent manner was quantified.
# For this purpose, a time-resolved fluorescence resonance energy transfer (TR-FRET) assay was used, which measures the binding between N-terminally His6-tagged BRD4 (BD1) (amino acids 67-152, longer constructs also being possible, preferably amino acids 44-168) and a synthetic acetylated histone H4 (Ac—H4) peptide with sequence GRGK(Ac)GGK(Ac)GLGK(Ac)GGAK(Ac)RHGSGSK-biotin. The recombinant BRD4 protein produced in-house according to Filippakopoulos et al., Nature, 2010, 468:1119-1123 was expressed in E. coli and purified by means of (Ni-NTA) affinity and (Sephadex G-75) size exclusion chromatography. The Ac—H4 peptide can be purchased, for example, from Biosyntan (Berlin, Germany).
# In the assay, typically 11 different concentrations of each substance (0.1 nM, 0.33 nM, 1.1 nM, 3.8 nM, 13 nM, 44 nM, 0.15 μM, 0.51 μM, 1.7 μM, 5.9 μM and 20 μM) were analysed as duplicates on the same microtitre plate. For this purpose, 100-fold concentrated solutions in DMSO were prepared by serial dilutions (1:3.4) of a 2 mM stock solution into a clear, 384-well microtitre plate (Greiner Bio-One, Frickenhausen, Germany). From this, 50 nl were transferred into a black test plate (Greiner Bio-One, Frickenhausen, Germany). The test was started by the addition of 2 μl of a 2.5-fold concentrated BRD4 solution (final concentration typically 10 nM in the 5 μl of reaction volume) in aqueous assay buffer [50 mM HEPES pH 7.5, 50 mM sodium chloride (NaCl), 0.25 mM CHAPS and 0.05% serum albumin (BSA)] to the substances in the test plate. This was followed by a 10-minute incubation step at 22° C. for the pre-equilibration of putative complexes between BRD4 and the substances.
# The mixture was then incubated in the dark at 22° C. for one hour and then at 4° C. for at least 3 hours and for no longer than overnight. The formation of BRD4/Ac—H4 complexes was determined by the measurement of the resonance energy transfer from the streptavidin-Eu cryptate to the anti-6His-XL665 antibody present in the reaction. For this purpose, the fluorescence emission was measured at 620 nm and 665 nm after excitation at 330-350 nm in a TR-FRET measuring instrument, for example a Rubystar or Pherastar (both from BMG Lab Technologies, Offenburg, Germany) or a Viewlux (Perkin-Elmer). The ratio of the emissions at 665 nm and at […] was taken as an indicator of the amount of BRD4/Ac—H4 complexes formed.
# The data (ratios) obtained were normalized, with 0% inhibition corresponding to the mean from the measurements for a set of controls (typically 32 data points) in which all the reagents were present. In these, in place of test substances, 50 nl of DMSO (100%) were used. Inhibition of 100% corresponded to the mean from the measurements for a set of controls (typically 32 data points) in which all the reagents except BRD4 were present. The IC50 was determined by regression analysis based on a 4-parameter equation (minimum, maximum, IC50, Hill; Y=max+(min−max)/(1+(X/IC50)^Hill)).
row,IC50 [nM],Compound
1,110,CNC(=O)N1N=C(c2ccc(N3CCC4(CC3)COC(=O)N4)cc2)c2cc(OC)c(OC)cc2CC1C (racemic) [Example 32]
2,2050,"CNC(=O)N1N=C(c2ccc(N3CC4(CN(C(=O)OC(C)(C)C)C4)C3)cc2)c2cc(OC)c(OC)cc2C[C@H]1C [Example 8.2, tert-butyl 6-{4-[(4R)-7,8-dimethoxy-4-methyl-3-(melhylcarbamoyl)-4,5-dihydro-3H-2,3-benzodiazepine-1-yl]phenyl}-2,6-diazaspiro[3.3]heptane-2-carboxylate]"
3,11500,"CNC(=O)N1N=C(c2ccc(N3CC4(CCS4(=O)=O)C3)cc2)c2cc(OC(F)(F)F)ccc2C[C@H]1C [Example 18.1, (4R)-1-[4-(1,1-dioxido-1-thia-6-azaspiro[3.3]hept-6-yl)phenyl]-N,4-dimethyl-8-(trifluoromethoxy)-4,5-dihydro-3H-2,3-benzodiazepine-3-carboxamide]"
4,100,"CNC(=O)N1N=C(c2ccc(N3CCC4(CCN(C)C4)CC3)cc2)c2cc(OC)c(OC)cc2CC1C (racemic) [Example 31, (±)-7,8-dimethoxy-N,4-dimethyl-1-[4-(2-methyl-2,8-diazaspiro[4.5]dec-8-yl)phenyl]-4,5-dihydro-3H-2,3-benzodiazepine-3-carboxamide]"
5,100,"CNC(=O)N1N=C(c2ccc(N3CCC4(CC3)CNC(=O)C4)cc2)c2cc(OC)c(OC)cc2CC1C (racemic) [Example 28, (±)-7,8-Dimethoxy-N,4-dimethyl-1-[4-(3-oxo-2,8-diazaspiro[4.5]dec-8-yl)phenyl]-4,5-dihydro-3H-2,3-benzodiazepine-3-carboxamide]"
6,1360,"CNC(=O)N1N=C(c2ccc(N3CC4(COC4)C3)cc2)c2cc(OC)c(OC)cc2C[C@H]1C [Example 5.2, (4R)-7,8-dimethoxy-N,4-dimethyl-1-[4-(2-oxa-6-azaspiro[3.3]hept-6-yl)phenyl]-4,5-dihydro-3H-2,3-benzodiazepine-3-carboxamide]"
7,70,"CNC(=O)N1N=C(c2ccc(N3CC4(C3)CS(=O)(=O)C4)cc2)c2cc(OC)c(OC)cc2CC1C (racemic) [Example 34, (±)-1-[4-(2,2-dioxido-2-thia-6-azaspiro[3.3]hept-6-yl)phenyl]-7,8-dimethoxy-N,4-dimethyl-4,5-dihydro-3H-2,3-benzodiazepine-3-carboxamide]"
8,2580,"CNC(=O)N1N=C(c2ccc(N3CC4(CCS4(=O)=O)C3)cc2)c2cc(OC)c(OC)cc2C[C@H]1C [Example 3.2, (4R)-1-[4-(1,1-Dioxido-1-thia-6-azaspiro[3.3]hept-6-yl)phenyl]-7,8-dimethoxy-N,4-dimethyl-4,5-dihydro-3H-2,3-benzodiazepine-3-carboxamide]"
9,40,"CNC(=O)N1N=C(c2ccc(N3CC4(CCS4(=O)=O)C3)cc2)c2cc(-n3nc(C)cc3C)ccc2CC1C (racemic) [Example 17, (±)-8-(3,5-dimethyl-1H-pyrazol-1-yl)-1-[4-(1,1-dioxido-1-thia-6-azaspiro[3.3]hept-6-yl)phenyl]-N,4-dimethyl-4,5-dihydro-3H-2,3-benzodiazepine-3-carboxamide]"

# Second part, the compound before the results:
row,Compound,IC50 [nM]
1,"CNC(=O)N1N=C(c2ccc(N3C[C@@H]4C[C@H]3CO4)cc2)c2cc(OC)c(OC)cc2C[C@@H]1C [Example 35, (4S)-7,8-dimethoxy-N,4-dimethyl-1-{4-[(1S,4S)-2-oxa-5-azabicyclo[2.2.1]hept-5-yl]phenyl}-4,5-dihydro-3H-2,3-benzodiazepine-3-carboxamide]",4110
2,"CNC(=O)N1N=C(c2ccc(N3C4CCC3CC(=O)NC4)cc2)c2cc(OC)c(OC)cc2CC1C (racemic) [Example 39, (±)-7,8-Dimethoxy-N,4-dimethyl-1-[4-(4-oxo-3,9-diazabicyclo[4.2.1]non-9-yl)phenyl]-4,5-dihydro-3H-2,3-benzodiazepine-3-carboxamide]",120
3,"CNC(=O)N1N=C(c2ccc(F)c(N3C[C@@H]4C[C@H]3CN4C)c2)c2cc(OC)c(OC)cc2C[C@H]1C (relative stereo) [Example 41.1, [1S-(1R*,2(S*),4R*)]-1-[4-fluoro-3-(5-methyl-2,5-diazabicyclo[2.2.1]hept-2-yl)phenyl]-7,8-dimethoxy-4,5-dihydro-N,4-dimethyl-3H-2,3-benzodiazepine-3-carboxamide]",16500
4,"CNC(=O)N1N=C(c2ccc(N3CCC4(CCCC4)CC3)cc2)c2cc(OC)c(OC)cc2C[C@@H]1C [Example 9.1, (4S)-1-[4-(8-azaspiro[4.5]dec-8-yl)phenyl]-7,8-dimethoxy-N,4-dimethyl-4,5-dihydro-3H-2,3-benzodiazepine-3-carboxamide]",200
5,"CNC(=O)N1N=C(c2ccc(N3CCC4(CCCC4)CC3)cc2)c2cc(OC)c(OC)cc2C[C@H]1C [Example 9.2, (4R)-1-[4-(8-azaspiro[4.5]dec-8-yl)phenyl]-7,8-dimethoxy-N,4-dimethyl-4,5-dihydro-3H-2,3-benzodiazepine-3-carboxamide]",> 20000
6,"CNC(=O)N1N=C(c2ccc(N3C(=O)[C@@H]4CC[C@H]3C4)cc2)c2cc(OC)c(OC)cc2C[C@@H]1C (relative stereo) [Example 2, {1S-[1R*,2(S*),4S*]}-7,8-dimethoxy-N,4-dimethyl-1-[4-(-3-oxo-2-azabicyclo[2.2.1]hept-2-yl)phenyl]-4,5-dihydro-3H-2,3-benzodiazepine-3-carboxamide]",20
7,"CNC(=O)N1N=C(c2ccc(N3C[C@@H]4C[C@H]3CN4C)cc2)c2cc(OC)c(OC)cc2C[C@@H]1C (relative stereo) [Example 40.2, [1S-[1R*,2(R*),4R*]]-7,8-Dimethoxy-N,4-dimethyl-1-[4-(5-methyl-2,5-diazabicyclo[2.2.1]hept-2-yl)phenyl]-4,5-dihydro-3H-2,3-benzodiazepine-3-carboxamide]",520
8,"CNC(=O)N1N=C(c2ccc(F)c(N3C[C@@H]4C[C@H]3CN4C)c2)c2cc(OC)c(OC)cc2C[C@@H]1C (relative stereo) [Example 41.2, [1S-(1R*,2(R*),4R*)]-1-[4-fluoro-3-(5-methyl-2,5-diazabicyclo[2.2.1]hept 2-yl)phenyl]-7,8-dimethoxy-4,5-dihydro-N,4-dimethyl-3H-2,3-benzodiazepine-3-carboxamide]",380
